From US8188059B2, “Compounds and methods for modulating expression of GCGR” (Isis Pharmaceuticals, Inc., priority 2006, dated 2012)
Strand notation (5' to 3'): a small letter for the sugar, then the base; units joined by * are phosphorothioate-linked, units joined directly phosphodiester-linked; [ ] holds rarer units or linkages, { } end groups; capitals alone tell only the bases. e = 2'-O-(2-methoxyethyl) (MOE); [5mC] = 5-methylcytosine; d = 2'-deoxy (DNA)

Tests used:
SGLT2 mRNA = SGLT2 mRNA levels in kidney of Balb/c mice, twenty 1-10-1 MOE gapmers at 350 nmol/kg, PPS 534 and PPS 553 (Example 18, Table 74); format: in vivo, mouse; details: 350 nmol/kg i.p. twice per week for two weeks
Protocol: Twenty 1-10-1 MOE gapmers that are complementary to human/monkey/mouse/rat SGLT2 were designed, synthesized and tested in vivo for suppression of SGLT2 mRNA levels in kidney. Data are averages from two experiments in which male 6-week old Balb/c mice were administered intraperitoneal injections of 350 nmol/kg of oligonucleotide, twice per week, over a period of two weeks (a total of four injections). Mice were sacrificed 48 hours following the last administration and evaluated for SGLT2 mRNA levels in kidney. SGLT2 mRNA levels were determined by quantitative real-time PCR analysis according to standard procedures, using two different PCR primer probe sets, primer probe set (PPS) 534 and PPS 553. SGLT2 mRNA levels were normalized to cyclophilin mRNA levels, which were also measured by quantitative real-time PCR.

PCSK9 mRNA [1] = assay: Dose-dependent inhibition of PCSK9 in Hep3B cells with EC50 (Example 19, Table 76); format: cell-based, human
Protocol: Short antisense compounds targeted to a PCSK9 nucleic acid were tested in a dose response experiment Hep3B cells. After the treatment period, RNA was isolated from the cells and PCSK9 mRNA levels were measured by quantitative real-time PCR, as described herein. PCSK9 mRNA levels were normalized to cyclophilin mRNA levels, as measured by real-time PCR using a cyclophilin-specific primer probe set. Results are presented as percent inhibition of PCSK9, relative to untreated control cells. […] As illustrated in the following table, PCSK9 mRNA levels were reduced in a dose-dependent manner.

PCSK9 mRNA [2] = format: cell-based, human; details: Hep3B cells, 100 nM, relative to untreated control cells; for % Inhib (PCSK9 mRNA): 0 = no reduction observed
Protocol: When cells reached appropriate confluency, they were treated with oligonucleotide using LIPOFECTIN® as described. […] Cells were treated and data were obtained in duplicate or triplicate. […] Cells were harvested 16-24 hours after oligonucleotide treatment.
Short antisense compounds targeted to a PCSK9 nucleic acid were tested for their effects on PCSK9 mRNA in vitro. The Isis No, gapmer motif and SEQ ID NO of each short antisense compound are shown again in Table 75. Cultured Hep3B cells were treated with 100 nM of short antisense compound. 5-10-5 MOE gapmers targeted to a PCSK9 nucleic acid were used as positive controls. After the treatment period, RNA was isolated from the cells and PCSK9 mRNA levels were measured by quantitative real-time PCR, as described herein. PCSK9 mRNA levels were adjusted according to total RNA content as measured by RIBOGREEN®. Results are presented in Table 75 as percent inhibition of PCSK9 (% Inhib), relative to untreated control cells.

PTP1B mRNA [3] = assay: Dose response for human PTP1B in HuVEC cells, Primer Probe Set 198 (Example 25, Table 86); format: cell-based
Protocol: (§1) Human vascular endothelial (HuVEC) cells were plated at a density of 5000 cells per well and treated as described herein with nM concentrations of short antisense compound as indicated in Table 86. After the treatment period, RNA was isolated from the cells and PTP1B mRNA levels were measured by quantitative real-time PCR, as described herein. PTP1B mRNA levels were adjusted according to total RNA content as measured by RIBOGREEN®. Two different human PTP1B primer probe sets were used to measure mRNA levels. Results with Primer Probe Set (PPS) 198 are shown in Table 86, and results with Primer Probe Set (PPS) 3000 are shown in Table 87. Results are presented as percent inhibition of PTP1B mRNA expression relative to untreated control cells.

PTP1B mRNA [4] = assay: Dose response for human PTP1B in HuVEC cells, Primer Probe Set 3000 (Example 25, Table 87); format: cell-based
Protocol: as §1

Substance: 379702 (antisense eG*d[5mC]*dA*d[5mC]*dA*d[5mC]*dA*dG*d[5mC]*dT*dG*e[5mC]) [compound 379702]
- SGLT2 mRNA in kidney, % change relative to saline (SGLT2 mRNA; primer probe set 534): −87.8%
- SGLT2 mRNA in kidney, % change relative to saline (SGLT2 mRNA; primer probe set 553): −89.5%

Substance: 400353 (antisense eA*e[5mC]*dA*d[5mC]*d[5mC]*d[5mC]*dT*d[5mC]*dA*d[5mC]*d[5mC]*d[5mC]*e[5mC]*e[5mC]) [compound 400353]
- % Inhibition of PCSK9 (PCSK9 mRNA [1]; 5 nM): 15%
- % Inhibition of PCSK9 (PCSK9 mRNA [1]; 10 nM): 27%
- % Inhibition of PCSK9 (PCSK9 mRNA [1]; 20 nM): 23%
- % Inhibition of PCSK9 (PCSK9 mRNA [1]; 40 nM): 43%
- % Inhibition of PCSK9 (PCSK9 mRNA [1]; 80 nM): 54%
- % Inhibition of PCSK9 (PCSK9 mRNA [1]; 160 nM): 48%
- % Inhibition Range (PCSK9 mRNA) (PCSK9 mRNA [2]): 10-20%
- % Inhib (PCSK9 mRNA) (PCSK9 mRNA [2]): 19%

Substance: 379698 (antisense eG*d[5mC]*dA*dG*d[5mC]*d[5mC]*d[5mC]*dA*d[5mC]*d[5mC]*dT*e[5mC]) [compound 379698]
- SGLT2 mRNA in kidney, % change relative to saline (SGLT2 mRNA; primer probe set 534): −11.8%
- SGLT2 mRNA in kidney, % change relative to saline (SGLT2 mRNA; primer probe set 553): −27.0%

Substance: 400330 (e[5mC]*e[5mC]*dA*d[5mC]*dG*dT*dG*dG*dG*d[5mC]*dA*dG*e[5mC]*eA; antisense) [compound 400330]
- % Inhibition of PCSK9 (PCSK9 mRNA [1]; 5 nM): 8%
- % Inhibition of PCSK9 (PCSK9 mRNA [1]; 10 nM): 32%
- % Inhibition of PCSK9 (PCSK9 mRNA [1]; 20 nM): 40%
- % Inhibition of PCSK9 (PCSK9 mRNA [1]; 40 nM): 69%
- % Inhibition of PCSK9 (PCSK9 mRNA [1]; 80 nM): 82%
- % Inhibition of PCSK9 (PCSK9 mRNA [1]; 160 nM): 71%
- % Inhibition Range (PCSK9 mRNA) (PCSK9 mRNA [2]): 40-50%
- % Inhib (PCSK9 mRNA) (PCSK9 mRNA [2]): 43%

Substance: 399096 (antisense eT*eG*d[5mC]*dT*d[5mC]*dG*dA*dA*d[5mC]*dT*d[5mC]*d[5mC]*eT*eT) [compound 399096]
- % Inhibition of PTP1B mRNA (PTP1B mRNA [3]; PPS 198, 1.11 nM): 3%
- % Inhibition of PTP1B mRNA (PTP1B mRNA [3]; PPS 198, 3.33 nM): 30%
- % Inhibition of PTP1B mRNA (PTP1B mRNA [3]; PPS 198, 10.0 nM): 78%
- % Inhibition of PTP1B mRNA (PTP1B mRNA [3]; PPS 198, 30.0 nM): 96%
- % Inhibition of PTP1B mRNA (PTP1B mRNA [4]; PPS 3000, 1.11 nM): 0%
- % Inhibition of PTP1B mRNA (PTP1B mRNA [4]; PPS 3000, 3.33 nM): 23%
- % Inhibition of PTP1B mRNA (PTP1B mRNA [4]; PPS 3000, 10.0 nM): 75%
- % Inhibition of PTP1B mRNA (PTP1B mRNA [4]; PPS 3000, 30.0 nM): 94%

Substance: 399132 (antisense eG*eG*dG*d[5mC]*dT*dG*dA*dG*dT*dG*dA*d[5mC]*e[5mC]*e[5mC]) [compound 399132]
- % Inhibition of PTP1B mRNA (PTP1B mRNA [3]; PPS 198, 1.11 nM): 0%
- % Inhibition of PTP1B mRNA (PTP1B mRNA [3]; PPS 198, 3.33 nM): 32%
- % Inhibition of PTP1B mRNA (PTP1B mRNA [3]; PPS 198, 10.0 nM): 75%
- % Inhibition of PTP1B mRNA (PTP1B mRNA [3]; PPS 198, 30.0 nM): 95%
- % Inhibition of PTP1B mRNA (PTP1B mRNA [4]; PPS 3000, 1.11 nM): 0%
- % Inhibition of PTP1B mRNA (PTP1B mRNA [4]; PPS 3000, 3.33 nM): 26%
- % Inhibition of PTP1B mRNA (PTP1B mRNA [4]; PPS 3000, 10.0 nM): 76%
- % Inhibition of PTP1B mRNA (PTP1B mRNA [4]; PPS 3000, 30.0 nM): 91%

Substance: 400308 (e[5mC]*e[5mC]*dG*dG*d[5mC]*d[5mC]*dG*d[5mC]*dT*dG*dA*d[5mC]*e[5mC]*eA; antisense) [compound 400308]
- % Inhibition of PCSK9 (PCSK9 mRNA [1]; 5 nM): 31%
- % Inhibition of PCSK9 (PCSK9 mRNA [1]; 10 nM): 10%
- % Inhibition of PCSK9 (PCSK9 mRNA [1]; 20 nM): 26%
- % Inhibition of PCSK9 (PCSK9 mRNA [1]; 40 nM): 40%
- % Inhibition of PCSK9 (PCSK9 mRNA [1]; 80 nM): 77%
- % Inhibition of PCSK9 (PCSK9 mRNA [1]; 160 nM): 86%
- % Inhibition Range (PCSK9 mRNA) (PCSK9 mRNA [2]): 50-60%
- % Inhib (PCSK9 mRNA) (PCSK9 mRNA [2]): 55%

Substance: 398112 (antisense e[5mC]*eA*dG*d[5mC]*d[5mC]*dT*dG*dG*d[5mC]*dA*d[5mC]*d[5mC]*eT*eA) [compound 398112]
- % Inhibition of PTP1B mRNA (PTP1B mRNA [3]; PPS 198, 1.11 nM): 1%
- % Inhibition of PTP1B mRNA (PTP1B mRNA [3]; PPS 198, 3.33 nM): 10%
- % Inhibition of PTP1B mRNA (PTP1B mRNA [3]; PPS 198, 10.0 nM): 73%
- % Inhibition of PTP1B mRNA (PTP1B mRNA [3]; PPS 198, 30.0 nM): 93%
- % Inhibition of PTP1B mRNA (PTP1B mRNA [4]; PPS 3000, 1.11 nM): 0%
- % Inhibition of PTP1B mRNA (PTP1B mRNA [4]; PPS 3000, 3.33 nM): 26%
- % Inhibition of PTP1B mRNA (PTP1B mRNA [4]; PPS 3000, 10.0 nM): 77%
- % Inhibition of PTP1B mRNA (PTP1B mRNA [4]; PPS 3000, 30.0 nM): 94%

Substance: 399113 (antisense eG*eT*dT*dA*dG*dG*d[5mC]*dA*dA*dA*dG*dG*eG*e[5mC]) [compound 399113]
- % Inhibition of PTP1B mRNA (PTP1B mRNA [3]; PPS 198, 1.11 nM): 0%
- % Inhibition of PTP1B mRNA (PTP1B mRNA [3]; PPS 198, 3.33 nM): 31%
- % Inhibition of PTP1B mRNA (PTP1B mRNA [3]; PPS 198, 10.0 nM): 72%
- % Inhibition of PTP1B mRNA (PTP1B mRNA [3]; PPS 198, 30.0 nM): 90%
- % Inhibition of PTP1B mRNA (PTP1B mRNA [4]; PPS 3000, 1.11 nM): 0%
- % Inhibition of PTP1B mRNA (PTP1B mRNA [4]; PPS 3000, 3.33 nM): 9%
- % Inhibition of PTP1B mRNA (PTP1B mRNA [4]; PPS 3000, 10.0 nM): 65%
- % Inhibition of PTP1B mRNA (PTP1B mRNA [4]; PPS 3000, 30.0 nM): 90%

Substance: 400352 (antisense e[5mC]*eA*d[5mC]*d[5mC]*d[5mC]*dT*d[5mC]*dA*d[5mC]*d[5mC]*d[5mC]*d[5mC]*e[5mC]*eA) [compound 400352]
- % Inhibition of PCSK9 (PCSK9 mRNA [1]; 5 nM): 7%
- % Inhibition of PCSK9 (PCSK9 mRNA [1]; 10 nM): 16%
- % Inhibition of PCSK9 (PCSK9 mRNA [1]; 20 nM): 40%
- % Inhibition of PCSK9 (PCSK9 mRNA [1]; 40 nM): 44%
- % Inhibition of PCSK9 (PCSK9 mRNA [1]; 80 nM): 63%
- % Inhibition of PCSK9 (PCSK9 mRNA [1]; 160 nM): 64%
- % Inhibition Range (PCSK9 mRNA) (PCSK9 mRNA [2]): 20-30%
- % Inhib (PCSK9 mRNA) (PCSK9 mRNA [2]): 29%

Substance: 400331 (eG*e[5mC]*d[5mC]*dA*d[5mC]*dG*dT*dG*dG*dG*d[5mC]*dA*eG*e[5mC]; antisense) [compound 400331]
- % Inhibition of PCSK9 (PCSK9 mRNA [1]; 5 nM): 29%
- % Inhibition of PCSK9 (PCSK9 mRNA [1]; 10 nM): 40%
- % Inhibition of PCSK9 (PCSK9 mRNA [1]; 20 nM): 47%
- % Inhibition of PCSK9 (PCSK9 mRNA [1]; 40 nM): 63%
- % Inhibition of PCSK9 (PCSK9 mRNA [1]; 80 nM): 75%
- % Inhibition of PCSK9 (PCSK9 mRNA [1]; 160 nM): 82%
- % Inhibition Range (PCSK9 mRNA) (PCSK9 mRNA [2]): 30-40%
- % Inhib (PCSK9 mRNA) (PCSK9 mRNA [2]): 35%
